# Experimental data reported in US20150297761A1, “PEPTIDIC STRUCTURES INCORPORATING AN AMINO ACID METAL COMPLEX AND APPLICATIONS IN MAGNETIC RESONANCE IMAGING” (THE GENERAL HOSPITAL CORPORATION, priority 2012, published 2015).
# Tests used:
# Format in all cases: physicochemical
# [1] = Relaxivity of DOTAlaP derivatives (Example 6)
# Experimental: Relaxivity. Longitudinal relaxation times T1, were measured on Bruker Minispecs mq20 (20 MHz) and mq60 (60 MHz) using an inversion recovery method with 10 inversion time values ranging from 0.05×T1 to 5×Ti. Relaxivity was calculated from a linear plot of 3 different concentrations ranging from 0.25 to 1.0 mM versus the corresponding inverse relaxation times. The temperature was adjusted to 37° C.
# [2] = Relaxivity before and after disulfide bond reduction with TCEP; details: for relaxivity r1, cyclic versus linearized (reduced) multimer: 1.4 T; for relaxivity r1, cyclic versus linearized (reduced) multimer / Relaxivity per Gd, TCEP reduced / Relaxivity per Gd, cyclic: 37° C.; for relaxivity after disulfide bond reduction: 20 eq. TCEP 30 minutes, T1 at 37° C., field not stated in the sentence (0.47 and 1.41 T examined); for Relaxivity per Gd, TCEP reduced: after TCEP reduction of the disulfide bond; for Relaxivity per Gd, cyclic: first value column, before reduction
# Experimental: Investigation of the effect of tertiary structure on relaxivity, was done by examination of the effect of disulfide bond reduction on T1 at 0.47 and 1.41 T. T1 was measured for each sample at 37° C. and then the samples were incubated with 20 eq. TCEP for 30 minutes at room temperature to reduce the intramolecular disulfide bond and give the linear peptide. Subsequently, the T1 values were remeasured and concentrations re-determined in order to calculate relaxivities. […] Over all, reduction of the disulfide bond has only a slight effect on relaxivity (FIGS. 16-18 and Table 5).
# Reduction of disulfide bond for relaxivity measurements. Complex solutions of purified, cyclic Gd complexes (concentrations of 0.1-0.025 mM, 110 μL) in HEPES buffer (50 mM, pH 7.4) were mixed with TCEP solution (20 mM in HEPES, 10 μL) and incubated room temperature. Reduction was checked by LCMS analysis and found to be complete after 30 minutes.
# (§1) Measurement of relaxivity. Longitudinal relaxation times T1, were measured on Bruker Minispecs mq20 (0.47 T) and mq60 (1.41 T), a Bruker Bioscan horizontal bore 4.7 T, 9.4 T and 11.7 T Varian NMR spectrometers. T1 was measured by using an inversion recovery method with 10 inversion time values ranging from 0.05×T1 to 5×T1. Relaxivity was calculated from a linear plot of 3 or 4 different concentrations (ranging from 0.01 to 0.5 mM, depending on amount of compound isolated) versus the corresponding inverse relaxation times. All samples were measured at 37° C. using either the internal temperature control of the instrument (0.47, 1.41, 9.4 and 11.7 T) or a warm air blower (4.7 T). MS-325/HSA was prepared in a 4.5% w/v solution of HSA (0.66 mM) in PBS. The MS-325 concentration (in presence of HSA) ranged from 0.05 to 0.15 mM.
# [3] = 17O NMR of Gd complexes for determination of τM (Example 6); details: pH 7.4, 10 mM PBS; for ^310 TM (ns) / ^310kex × 10^6 (s^−1): 310 K
# Experimental: ^17O NMR of Gd complexes for Determination of TM. ^17O NMR measurements of solutions were performed at 11.7 T on 350 μL samples contained in 5 mm standard NMR tubes on a Varian spectrometer. Temperature was regulated by air flow controlled by a Varian VT unit. ^17O transverse relaxation times of a >4 mM solution of Gd(3) and Gd(5a) (pH 7.4, 10 mM PBS buffer) were measured using a CPMG sequence. The concentration of the sample was determined by ICP-MS. Reduced relaxation rates, 1/T2r were calculated from the difference of 1/T2 between the sample and the water blank, and then divided by the mole fraction of coordinated water. The temperature dependence of 1/T2r was fit to a 4-parameter model as previously described. The Gd—O hyperfine-coupling constant, A/h, was assumed to be 3.8×10^6 rad/s, the Gd—O distance was assumed to be 3.1 Å.
# [4] = Relaxivity of Gd(DOTAla) metallopeptides and reference agents (T1 inversion recovery, 37° C.); details: for Relaxivity per Gd, 400 MHz: 400 MHz (9.4 T); for r1 [0.47 T], per molecule / r1 [1.4 T], per molecule: per molecule (in parentheses)
# Experimental: Main numbers are given per Gd, numbers in parentheses are per molecule values. All numbers were determined at 37° C. using an inversion recovery sequence at concentrations ranging from 0.05 to 0.6 mM/Gd. Table 4 in Example 2 further expands the data of Table 1.
# Per Gd relaxivities were determined by measuring T1 at 37° C. using 20, 60, 200, 400 and 500 MHz spectrometers. Relaxivities for MS-325 (with and without the presence of HSA) as a reference compound with a long τR and [Gd(HP-DO3A)(H2O)] as a reference for very short τR were also measured, and all the relaxivity data is tabulated in Table 4, together with results obtained from literature for the compounds with similar estimated τR. […] Additional rigidity through cyclization seems to provide only minor relaxivity increase for the dimeric and trimeric systems (Gd2C2 and Gd3C3).
# as §1
# [5] = Ligand challenge, equilibrium constant Kcomp of [Gd(DTPA)(H2O)]2− vs. L; details: calculated from literature thermodynamic data
# Experimental: As a means of assessing thermodynamic stability relative to other Gd(III)-complexes, [Gd(CyPic3A)(H2O)2]^− was challenged with DTPA in pH 7.4 25 mM Tris buffer. […] From this information it was possible to deduce equilibrium constants (Kcomp) for the competition reaction described in Equation 5,^31 where L=DTPA and L′=challenging chelator.
# Equilibration of each solution was monitored by LC-MS. Relative distributions of [Gd(CyPic3A)(H2O)2]^− and CyPic3A were determined by integrating the corresponding absorbance traces at 280 nm. […] Kcomp values determined between [Gd(DTPA)(H2O)]^2− and various ligands were determined from conditional formation constants (Kcond)^4 values taken from the literature.^6-16 Direct comparisons were only made between Kcond values determined under identical conditions.
compound,measurement,setting,value
"2,2′-(4-(2-carboxy-2-((1-(4-isobutylphenyl)ethyl)amino)ethyl)-10-(phosphonomethyl)-1,4,7,10-tetraazacyclododecane-1,7-diyl)diacetic acid [Gd(4b)]","r1 (20 MHz, 37° C., mM^−1s^−1)",[1],4 mM⁻¹ s⁻¹
same,"r1 (60 MHz, 37° C., mM^−1s^−1)",[1],3.8 mM⁻¹ s⁻¹
H2N—C(SH)PG-DOTAla(Gd)-G-DOTAla(Gd)-GC(SH)CONH2 [Gd2C2-red],"relaxivity r1, cyclic versus linearized (reduced) multimer",[2],9 mM⁻¹ s⁻¹
same,relaxivity after disulfide bond reduction,[2],9 mM⁻¹ s⁻¹
"NC(CN1CCN(CC(=O)O)CCN(CP(=O)(O)O)CCN(CC(=O)O)CC1)C(=O)O (centres unmarked) [Gd(3), 2,2′-(4-(2-amino-2-carboxyethyl)-10-(phosphonomethyl)-1,4,7,10-tetra-azacyclododecane-1,7-diyl)diacetic acid]","r1 (20 MHz, 37° C., mM^−1s^−1)",[1],6.4 mM⁻¹ s⁻¹
same,"r1 (60 MHz, 37° C., mM^−1s^−1)",[1],6.1 mM⁻¹ s⁻¹
same,^310 TM (ns),[3],8.1 ± 0.25 ns
same,^310kex × 10^6 (s^−1),[3],125 ± 4 × 10^6 s^−1
same,ΔH^‡,[3],3.23 ± 0.268 kcal/mol
H2N—C(S^cycl)PG-DOTAla(Gd)-GC(S^cycl)CONH2 [GdC1],"Relaxivity per Gd, 20 MHz",[4],8.3 mM⁻¹ s⁻¹
same,"Relaxivity per Gd, 60 MHz",[4],7.1 mM⁻¹ s⁻¹
same,"Relaxivity per Gd, 200 MHz",[4],7.3 mM⁻¹ s⁻¹
same,"Relaxivity per Gd, 400 MHz",[4],5.1 mM⁻¹ s⁻¹
same,"Relaxivity per Gd, 500 MHz",[4],4.5 mM⁻¹ s⁻¹
same,"r1 [0.47 T], per Gd",[4],8.3 mM⁻¹ s⁻¹
same,"r1 [1.4 T], per Gd",[4],6.7 mM⁻¹ s⁻¹
same,"Relaxivity per Gd, TCEP reduced",[2],6.4 mM⁻¹ s⁻¹
same,"Relaxivity per Gd, cyclic",[2],7.1 mM⁻¹ s⁻¹
O=C(O)CN1CCN(CC(=O)O)Cc2cccc(n2)CN(CC(=O)O)CC1 [PCTA],Kcomp [Gd(DTPA)(H2O)]^2- vs. L pH 4,[5],0.064^10
same,"Kcomp, [Gd(DTPA)(H2O)]^2- vs. L pH 7.4",[5],0.019^10
CC1(N(CC(=O)O)CC(=O)O)CN(CC(=O)O)CCN(CC(=O)O)C1 [AAZTA],Kcomp [Gd(DTPA)(H2O)]^2- vs. L pH 4,[5],0.091^9
same,"Kcomp, [Gd(DTPA)(H2O)]^2- vs. L pH 7.4",[5],.001^9
"CC(C)Cc1ccc(C(C)C(=O)NCCNC(=O)C(N)CN2CCN(CC(=O)O)CCN(CP(=O)(O)O)CCN(CC(=O)O)CC2)cc1 (centres unmarked) [Gd(5b), 2, 2′-(4-(2-amino-3-((2-(2-(4-isobutylphenyl)propanamido)ethyl)amino)-3-oxopropyl)-10-(phosphonomethyl)-1,4,7,10-tetraazacyclododecane-1,7-diyl)diacetic acid]","r1 (20 MHz, 37° C., mM^−1s^−1)",[1],3.2 mM⁻¹ s⁻¹
same,"r1 (60 MHz, 37° C., mM^−1s^−1)",[1],3.0 mM⁻¹ s⁻¹
"2,2′-(4-(2-carboxy-2-(2-(4-isobutylphenyl)propanamido)ethyl)-10-(phosphonomethyl)-1,4,7,10-tetraazacyclododecane-1,7-diyl)diacetic acid [Gd(5a)]","r1 (20 MHz, 37° C., mM^−1s^−1)",[1],5.4 mM⁻¹ s⁻¹
same,"r1 (60 MHz, 37° C., mM^−1s^−1)",[1],4.1 mM⁻¹ s⁻¹
same,^310 TM (ns),[3],6.36 ± 0.09 ns
same,^310kex × 10^6 (s^−1),[3],158 ± 3 × 10^6 s^−1
same,ΔH^‡,[3],5.492 ± 0.421 kcal/mol
H2N—C(S^cycl)PG-DOTAla(Gd)-G-DOTAla(Gd)-G-DOTAla(Gd)-GC(S^cycl)CONH2 [Gd3C3],"Relaxivity per Gd, 20 MHz",[4],12.7 mM⁻¹ s⁻¹
same,"Relaxivity per Gd, 60 MHz",[4],12.3 mM⁻¹ s⁻¹
same,"Relaxivity per Gd, 200 MHz",[4],9.2 mM⁻¹ s⁻¹
same,"Relaxivity per Gd, 400 MHz",[4],6.6 mM⁻¹ s⁻¹
same,"Relaxivity per Gd, 500 MHz",[4],5.5 mM⁻¹ s⁻¹
same,"r1 [0.47 T], per Gd",[4],13.38 mM⁻¹ s⁻¹
same,"r1 [1.4 T], per Gd",[4],12.86 mM⁻¹ s⁻¹
same,"r1 [0.47 T], per molecule",[4],40.14 mM⁻¹ s⁻¹
same,"r1 [1.4 T], per molecule",[4],38.58 mM⁻¹ s⁻¹
same,"Relaxivity per Gd, TCEP reduced",[2],11.5 mM⁻¹ s⁻¹
same,"Relaxivity per Gd, cyclic",[2],12.3 mM⁻¹ s⁻¹
H2N—C(S^cycl)PG-DOTAla(Gd)-G-DOTAla(Gd)-GC(S^cycl)CON H2 [Gd2C2],"Relaxivity per Gd, 20 MHz",[4],11.4 mM⁻¹ s⁻¹
same,"Relaxivity per Gd, 60 MHz",[4],10.6 mM⁻¹ s⁻¹
same,"Relaxivity per Gd, 200 MHz",[4],7.5 mM⁻¹ s⁻¹
same,"Relaxivity per Gd, 400 MHz",[4],5.7 mM⁻¹ s⁻¹
same,"Relaxivity per Gd, 500 MHz",[4],4.5 mM⁻¹ s⁻¹
same,"r1 [0.47 T], per Gd",[4],13.1 mM⁻¹ s⁻¹
same,"r1 [1.4 T], per Gd",[4],12.2 mM⁻¹ s⁻¹
same,"r1 [0.47 T], per molecule",[4],26.2 mM⁻¹ s⁻¹
same,"r1 [1.4 T], per molecule",[4],24.4 mM⁻¹ s⁻¹
same,"relaxivity r1, cyclic versus linearized (reduced) multimer",[2],10.5 mM⁻¹ s⁻¹
same,"Relaxivity per Gd, TCEP reduced",[2],9 mM⁻¹ s⁻¹
same,"Relaxivity per Gd, cyclic",[2],10.5 mM⁻¹ s⁻¹
H2N—C(SH)PG-DOTAla(Gd)-G-DOTAla(Gd)-G-DOTAla(Gd)-GC(SH)CONH2 [Gd3C3-red],relaxivity after disulfide bond reduction,[2],11.5 mM⁻¹ s⁻¹
